Consider one compound from patent publication US20170081338A1, “SUBSTITUTED HETEROARYL COMPOUNDS AND METHODS OF USE” (Sunshine Lake Pharma Co., Ltd., priority 2015, published 2017).

pIC50: −log10 of the molar value.

In assay [1] the target is T1, JAK2 (h) (Homo sapiens, UniProt O60674).
T1 construct: purchased Millipore UK Ltd (contract assay service)
Briefly: JAK2 (h) kinase assay. The format is biochemical. The protocol: (§1) Kinase assays can be performed by measurement of incorporation of γ-^33P ATP into immobilized myelin basic protein (MBP). High binding white 384 well plates (Greiner) are coated with MBP (Sigma #M-1891) by incubation of 60 μL/well of 20 μg/mL MBP in Tris-buffered saline (TBS; 50 mM Tris pH 8.0, 138 mM NaCl, 2.7 mM KCl) for 24 h at 4° C. Plates are washed 3× with 100 μL TBS. Kinase reactions are carried out in a total volume of 34 μL in kinase buffer (according to the need to make, for example, 5 mM Hepes pH 7.6, 15 mM NaCl, 0.01% bovine gamma globulin (Sigma #1-5506), 10 mM MgCl2, 1 mM DTT, 0.02% TritonX-100). Compound dilutions are performed in DMSO and added to assay wells to a final DMSO concentration of 1%. Each data point is measured in duplicate, and at least two duplicate assays are performed for each individual compound determination. […] A mixture of unlabeled ATP and γ-^33P ATP is added to start the reaction (2×10^6 cpm of γ-^33P ATP per well (3000 Ci/mmole) and 10 μM unlabeled ATP, typically. The reactions are carried out for 1 h at room temperature with shaking. Plates are washed 7× with TBS, followed by the addition of 50 µL/well scintillation fluid (Wallac). Plates are read using a Wallac Trilux counter. This is only one format of such assays; various other formats are possible, as known to one skilled in the art. […]

Assay [2] has as its target T2, FLT3 (h) (Homo sapiens, UniProt P36888).
T2 construct: purchased Millipore UK Ltd (contract assay service)
T2 sequence (P36888 27-993): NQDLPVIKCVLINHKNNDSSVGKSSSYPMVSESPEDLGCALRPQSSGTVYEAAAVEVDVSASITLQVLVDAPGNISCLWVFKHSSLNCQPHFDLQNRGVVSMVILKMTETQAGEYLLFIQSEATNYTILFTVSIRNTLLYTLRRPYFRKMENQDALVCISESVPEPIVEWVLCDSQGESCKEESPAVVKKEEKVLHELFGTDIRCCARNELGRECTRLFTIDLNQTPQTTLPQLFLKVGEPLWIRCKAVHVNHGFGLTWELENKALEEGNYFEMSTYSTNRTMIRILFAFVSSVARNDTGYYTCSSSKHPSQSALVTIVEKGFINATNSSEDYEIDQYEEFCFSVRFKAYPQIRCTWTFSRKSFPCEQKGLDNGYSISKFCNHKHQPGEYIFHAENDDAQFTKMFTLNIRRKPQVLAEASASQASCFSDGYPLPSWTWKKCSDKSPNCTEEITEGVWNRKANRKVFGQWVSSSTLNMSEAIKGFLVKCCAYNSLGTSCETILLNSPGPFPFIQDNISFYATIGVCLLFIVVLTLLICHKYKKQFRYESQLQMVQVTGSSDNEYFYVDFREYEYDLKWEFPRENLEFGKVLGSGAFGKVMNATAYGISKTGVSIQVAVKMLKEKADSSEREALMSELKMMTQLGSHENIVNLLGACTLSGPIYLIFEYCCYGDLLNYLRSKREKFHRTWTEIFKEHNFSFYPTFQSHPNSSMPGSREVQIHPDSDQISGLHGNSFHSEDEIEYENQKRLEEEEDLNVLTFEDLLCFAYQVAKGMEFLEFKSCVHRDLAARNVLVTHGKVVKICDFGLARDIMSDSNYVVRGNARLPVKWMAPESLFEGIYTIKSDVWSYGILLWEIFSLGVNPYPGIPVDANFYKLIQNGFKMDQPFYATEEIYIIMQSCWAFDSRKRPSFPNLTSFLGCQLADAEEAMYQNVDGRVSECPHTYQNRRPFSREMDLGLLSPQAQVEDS
In words: FLT3 (h) kinase assay. The format is biochemical. Here is the method:
as §1

T1 sequence (O60674 whole entry): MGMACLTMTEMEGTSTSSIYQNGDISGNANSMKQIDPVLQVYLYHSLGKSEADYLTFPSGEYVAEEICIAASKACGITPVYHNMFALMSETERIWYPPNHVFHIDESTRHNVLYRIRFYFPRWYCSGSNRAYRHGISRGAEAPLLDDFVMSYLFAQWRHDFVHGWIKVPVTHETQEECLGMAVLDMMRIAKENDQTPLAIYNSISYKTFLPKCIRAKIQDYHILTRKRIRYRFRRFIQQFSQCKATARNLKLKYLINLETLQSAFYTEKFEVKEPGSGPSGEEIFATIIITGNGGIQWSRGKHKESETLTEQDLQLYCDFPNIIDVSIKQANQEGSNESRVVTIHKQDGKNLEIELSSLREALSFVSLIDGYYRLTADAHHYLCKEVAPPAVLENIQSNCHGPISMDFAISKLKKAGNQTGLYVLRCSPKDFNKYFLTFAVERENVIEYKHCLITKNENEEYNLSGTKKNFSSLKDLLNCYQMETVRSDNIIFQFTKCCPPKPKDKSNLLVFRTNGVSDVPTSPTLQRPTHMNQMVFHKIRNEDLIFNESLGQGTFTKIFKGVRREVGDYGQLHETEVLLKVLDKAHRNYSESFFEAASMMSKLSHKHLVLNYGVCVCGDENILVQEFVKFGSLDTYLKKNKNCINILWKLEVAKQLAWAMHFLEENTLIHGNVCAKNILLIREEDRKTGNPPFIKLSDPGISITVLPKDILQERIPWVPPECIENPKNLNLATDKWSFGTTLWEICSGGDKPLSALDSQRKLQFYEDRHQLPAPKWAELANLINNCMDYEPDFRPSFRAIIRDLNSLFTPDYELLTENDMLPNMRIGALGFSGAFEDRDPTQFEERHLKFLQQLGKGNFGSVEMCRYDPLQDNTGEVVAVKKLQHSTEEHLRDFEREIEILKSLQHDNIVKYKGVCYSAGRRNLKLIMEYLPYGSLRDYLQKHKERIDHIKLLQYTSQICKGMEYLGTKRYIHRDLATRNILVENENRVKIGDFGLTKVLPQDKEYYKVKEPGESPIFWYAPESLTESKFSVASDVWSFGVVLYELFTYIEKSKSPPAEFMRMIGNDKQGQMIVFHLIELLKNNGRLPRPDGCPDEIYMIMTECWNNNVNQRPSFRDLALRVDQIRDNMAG

A word on the pIC50: it is −log10 of the IC50, conventionally taken in molar units. A lower pIC50 goes with a high IC50. Turning to `CC(C)CS(=O)(=O)N[C@H]1COC2C1OC[C@H]2Nc1nc(Nc2cnn(C)c2)ncc1Cl` (stereo partly drawn) [Ex. 2, N-((3S,6R)-6-((5-chloro-2-((1-methyl-1H-pyrazol-4-yl)amino)pyrimidin-4-yl)amino)hexahydrofuro[3,2-b]furan-3-yl)-2-methylpropane-1-sulfonamide], the values for the pIC50 in assay [1] and in assay [2] were 6.46 and 6.07, respectively.
